Assay results as given in patent US20250302784A1, “MYOBLAST PROLIFERATION PROMOTER AND MYOBLAST-PROLIFERATION PROMOTING COMPOSITION, AND MUSCLE ATROPHY INHIBITOR AND MUSCLE-ATROPHY INHIBITING COMPOSITION” (MARUZEN PHARMACEUTICALS CO., LTD., priority 2022, published 2025).

Experiments:
[1] = tested on: skeletal muscle-derived myoblasts (C2C12) of mice; assay: Test for myoblast-proliferation promotion effect (MTT assay); assay type: cell-based; conditions: for Myoblast proliferation promotion rate (%): cultured 2 days, MTT, rate = A/B×100 vs cells without test sample
Protocol: A test on a myoblast proliferation effect of the compound represented by Structural Formula (1) (using the compound available from Sigma-Aldrich) was performed according to the following testing method.
After culturing skeletal muscle-derived myoblasts (C2C12) of mice in a Dulbecco's modified eagle medium (DMEM) containing 10% FBS, the cells were collected by trypsinization. The collected cells were diluted with a 5% FBS-containing DMEM so that a concentration of the cells was to be 2.0×10^4 cells/mL. Then, the dilution was seeded by 100 μL per well in a 96-well plate, followed by culturing for 6 hours. After completing the culture, a test sample dissolved in a 5% FBS-containing DMEM (see Table 1 below for the final concentration) was added by 100 μL per well, followed by culturing for 2 days. Even in the case where the test sample was not added, culturing was performed in the same manner except that the test sample was not added.
The myoblast-proliferation promotion effect was measured using an MTT assay. After completing the culture, the medium was removed, and MTT dissolved in a PBS buffer solution (PBS(−)) at a final concentration of 0.4 mg/mL was added by 100 μL per well. After culturing for 2 hours, blue formazan generated within the cells was extracted with 100 μL of 2-propanol. After the extraction, absorbance at a wavelength of 570 nm was measured. In addition, absorbance at a wavelength of 650 nm was measured as turbidity. The difference between the absorbance at the wavelength of 570 nm and the absorbance at the wavelength of 650 nm was used to determine an amount of blue formazan generated.
The myoblast proliferation promotion rate (%) was calculated from the obtained results according to the following equation.
Myoblast proliferation promotion rate (%)=A/B×100
In the equation above, A and B are as follows. • A: An amount of blue formazan generated in the cells to which the test sample was added. • B: An amount of blue formazan generated in the cells to which the test sample was not added.

[2] = tested on: rat model of disuse muscle atrophy; assay: Test for muscle atrophy inhibition effect in rat model of disuse muscle atrophy (hindlimb suspension); assay type: in vivo, Wistar rats
Protocol: Whether muscle atrophy was inhibited by orally administering the compound represented by Structural Formula (1) (using the compound available from Cayman Chemical) to a rat model of disuse muscle atrophy for 14 days was tested according to the following testing method.
Seven week-old male Wistar (Crlj: WI) rats were acquired from Charles River Laboratories Japan, Inc., and were bred in the environment where a temperature was 23±3° C. and the humidity was 55±15% and in a cycle of 12 hours in light and 12 hours in dark. The rats were acclimated for one week before use, and were allowed to freely intake a solid feed (CRF-1, available from Oriental Yeast Co., Ltd.) and tap water.
After one week of acclimation, the Wistar rats were randomly divided into groups of eight. The rats were bred for 14 days in the state where the tail of each rat was held with clips so that the rat's hind legs were raised above the floor according to the method of Morey-Holton E R et al. During the breeding period, the rats were allowed to move around within a case with their forelimbs, and were allowed to freely intake water and a feed.
The test groups were (1) a normal group (without hindlimb suspension), (2) a control group (hindlimb suspension+0 mg/kg of the compound represented by Structural Formula (1)), (3) a group with the compound represented by Structural Formula (1) (hindlimb suspension+125 mg/kg of the compound represented by Structural Formula (1)).
The compound represented by Structural Formula (1) was dissolved in water, and the solution was administered by oral gavage every day for 14 days. Water was administered to the control group.
At the end of the test, the rats were euthanized by exsanguination under isoflurane anesthesia. Then, the soleus muscles were removed and the muscle weight was measured. In Table 2, the soleus muscle weight is an average value.

O=C(O)CCc1ccc(O)c(O)c1 [3,4-dihydroxyhydrocinnamic acid]
Myoblast-proliferation promotion effect (in words) ([1]; conclusion from Table 1): excellent myoblast-proliferation promotion effect | Myoblast proliferation promotion rate (%) ([1]; test sample 25 μmol/L): 106.4% | Myoblast proliferation promotion rate (%) ([1]; test sample 100 μmol/L): 108.0% | Soleus muscle weight ([2]; hindlimb-suspended male Wistar rats, 125 mg/kg oral gavage daily for 14 days, average value (normal group 359.1, control group 139.3)): 151.3 | Soleus muscle weight compared to the control group (in words) ([2]; hindlimb-suspended rats, 125 mg/kg oral, 14 days): increased compared to the control group | Muscle atrophy inhibition (in words) ([2]; rat model of disuse muscle atrophy, 125 mg/kg oral, 14 days): inhibited muscle atrophy
